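Cells were grown in 96-well plates and exposed to each compound for 48 hours at five concentrations; endpoints were interpolated linearly between bracketing concentrations, or set to the highest concentration if not reached. The concentration for 50% growth inhibition is given as GI50.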 Calls of active or inactive are those of the source. Cut-off read from the data, not from the text of the source: active = GI50 up to about 1.1 µM and inactive = higher.
Columns and labels:
Assay in all cases: NCI-60 cell line screen, 48 h
[1] = test system: CAKI-1
[2] = test system: HCC 2998
[3] = test system: HL-60
[4] = test system: HOP-92
[5] = test system: MCF7
[6] = test system: MDA-MB-231
[7] = test system: MDA-MB-435
[8] = test system: Malme-3M
[9] = test system: NCI-H226
[10] = test system: NCI-H460
[11] = test system: NCI-H522
[12] = test system: OVCAR-5
[13] = test system: RPMI-8226
[14] = test system: RXF 393
[15] = test system: SNB-19
[16] = test system: SR
[17] = test system: SW-620
[18] = test system: T47D
[19] = test system: U-251
[20] = test system: SF-539

Measured: GI50

NCCP(=O)(O)O
inactive: [1] > 100 µM | [2] > 100 µM | [3] > 100 µM | [4] > 100 µM | [5] > 100 µM | [6] > 100 µM | [7] > 100 µM | [8] > 100 µM | [9] > 100 µM | [10] > 100 µM | [11] > 100 µM | [12] > 100 µM | [13] > 100 µM | [14] > 100 µM | [15] > 100 µM | [16] > 100 µM | [17] > 100 µM | [18] > 100 µM | [19] > 100 µM

CN(C)S(=O)(=O)c1ccc(Nc2ccc(O)c3c2C(=O)c2c([N+](=O)[O-])ccc(O)c2C3=O)cc1
inactive: [1] > 100 µM | [3] > 100 µM | [4] > 100 µM | [5] > 100 µM | [6] 91.2 µM | [7] > 100 µM | [8] 57.4 µM | [10] > 100 µM | [11] 52.8 µM | [12] > 100 µM | [13] > 100 µM | [14] > 100 µM | [15] > 100 µM | [16] 54.2 µM | [17] 92.3 µM | [18] > 100 µM | [19] > 100 µM

Cc1ncn(-c2ccccc2O)c1C
inactive: [1] > 100 µM | [3] > 100 µM | [4] > 100 µM | [5] > 100 µM | [6] > 100 µM | [7] > 100 µM | [8] > 100 µM | [9] > 100 µM | [11] > 100 µM | [12] > 100 µM | [13] > 100 µM | [14] > 100 µM | [20] > 100 µM | [15] > 100 µM | [16] > 100 µM | [17] > 100 µM | [18] > 100 µM | [19] > 100 µM

S=C(Nc1ccc(Cl)cc1)SC1CCCCC1
inactive: [1] 15 µM | [2] 19.2 µM | [4] 23.5 µM | [5] 19 µM | [6] 29.4 µM | [7] 29.9 µM | [8] 28.4 µM | [9] 72.4 µM | [10] 28.4 µM | [11] 19.7 µM | [12] 17.5 µM | [13] 40.1 µM | [14] 25.1 µM | [20] 23.1 µM | [15] 20.8 µM | [16] 32.6 µM | [17] 32.9 µM | [18] 22.5 µM | [19] 32.4 µM

Cc1cc(O)nc(NN2C(Cl)C(=O)C2c2ccccc2O)n1 (stereo unspecified)
active: [3] 0.689 µM | [10] 0.726 µM | [16] 0.796 µM
inactive: [1] 1.64 µM | [2] 2.67 µM | [4] 5.26 µM | [5] 2.48 µM | [6] 4.39 µM | [7] 5.68 µM | [9] 2.39 µM | [12] 12.9 µM | [13] 3.06 µM | [14] 3.03 µM | [20] 4.54 µM | [15] 5.85 µM | [17] 3.27 µM | [18] 3.99 µM | [19] 2.76 µM

Cc1cc(=O)c2ccccc2n1CCCCCCCCCCn1c(C)cc(=O)c2ccccc21
inactive: [1] 21.6 µM | [2] 11.8 µM | [3] 4.38 µM | [4] 22.4 µM | [5] > 10 µM | [6] 29.5 µM | [7] 14.8 µM | [8] 15.7 µM | [9] 20.5 µM | [10] 15.7 µM | [11] 14.4 µM | [12] > 100 µM | [14] 26.1 µM | [20] 25.8 µM | [15] 18.1 µM | [16] 13.2 µM | [17] 20.4 µM | [18] 16.3 µM | [19] 15.6 µM

CN(C)CCCNC(=O)c1cc(NS(=O)(=O)c2ccc3c(c2)C(=O)c2ccccc2C3=O)cn1C
inactive: [1] 67.6 µM | [2] 24.5 µM | [3] 22.1 µM | [4] 32.1 µM | [5] 19.5 µM | [6] 24.8 µM | [7] 25.4 µM | [8] 5.5 µM | [9] 22.9 µM | [10] 18.8 µM | [11] 22.6 µM | [12] 35.6 µM | [13] 14.8 µM | [14] 28 µM | [20] 42.8 µM | [15] 12.8 µM | [16] 21.9 µM | [17] 46.3 µM | [18] 35.2 µM | [19] 29.1 µM

COc1ccc(Nc2nc3ccccc3nc2-c2cccs2)cc1OC
inactive: [1] > 10 µM | [2] > 10 µM | [3] > 10 µM | [4] > 10 µM | [5] > 10 µM | [6] > 10 µM | [7] > 10 µM | [9] > 10 µM | [10] > 10 µM | [11] > 10 µM | [12] > 10 µM | [13] > 10 µM | [14] > 10 µM | [20] > 10 µM | [15] > 10 µM | [16] 5.89 µM | [17] > 10 µM | [18] > 10 µM | [19] > 10 µM

COC(=O)c1c(C)nc(C)c(N=O)c1-c1ccccc1C(F)(F)F
inactive: [1] 11 µM | [2] 79.6 µM | [3] 8 µM | [4] 17.3 µM | [5] 20.2 µM | [6] 18 µM | [7] 22.3 µM | [8] 15.8 µM | [9] 19.4 µM | [10] 80.4 µM | [11] 4.97 µM | [12] 21 µM | [13] 73.8 µM | [14] 15.3 µM | [20] 20.7 µM | [15] > 100 µM | [16] 13.7 µM | [17] 15.5 µM | [18] 17.3 µM | [19] 17.5 µM

O=C1C=C(NCCc2ccc(O)cc2)C(=O)C=C1NCCc1ccc(O)cc1
inactive: [1] > 100 µM | [2] > 100 µM | [3] 19.2 µM | [4] 71.1 µM | [5] > 100 µM | [6] 47.1 µM | [7] 49.1 µM | [8] > 100 µM | [9] > 100 µM | [10] > 100 µM | [11] > 100 µM | [12] > 100 µM | [13] > 100 µM | [14] > 100 µM | [15] > 100 µM | [16] > 100 µM | [17] > 100 µM | [18] > 100 µM | [19] 32.2 µM

COCc1nc2c(OC)c(-c3nc4ccc(N5CCN(C)CC5)nc4[nH]3)cc(OC)c2[nH]1
inactive: [1] > 100 µM | [2] 99.3 µM | [3] 30.7 µM | [4] > 100 µM | [5] 40.5 µM | [6] 45.8 µM | [7] 41.8 µM | [8] 20.7 µM | [9] > 100 µM | [10] 35.3 µM | [11] 37.7 µM | [12] 40.4 µM | [14] 27.2 µM | [15] 48 µM | [16] 32.9 µM | [17] 39.1 µM | [18] 53 µM | [19] 39.7 µM

CC1(C)OCC(C2OC(N3O[C@H](CI)C[C@@H]3c3ccccc3)C3OC(C)(C)OC23)O1 (stereo partly specified)
inactive: [1] > 100 µM | [2] > 100 µM | [3] 66.5 µM | [4] > 100 µM | [5] > 100 µM | [6] > 100 µM | [7] > 100 µM | [8] > 100 µM | [10] 56.1 µM | [11] > 100 µM | [12] > 100 µM | [13] 43 µM | [14] > 100 µM | [20] > 100 µM | [15] > 100 µM | [16] 48.5 µM | [17] > 100 µM | [18] > 100 µM | [19] > 100 µM

COc1ccc2c(C(=O)c3cn(CCN4CCOCC4)c4ccccc34)cccc2c1
inactive: [1] > 46 µM | [2] 41.7 µM | [3] 18.3 µM | [4] > 100 µM | [5] 5.01 µM | [6] > 100 µM | [7] 8.26 µM | [8] 15.8 µM | [9] > 100 µM | [10] 4.65 µM | [11] 6.65 µM | [12] > 100 µM | [13] 21.2 µM | [14] > 67.6 µM | [20] > 80 µM | [16] 47.5 µM | [17] 31 µM | [18] 38 µM | [19] 7.33 µM

C1CCNCC1.CN(C)c1ccc(/C=C2/NC(=S)NC2=O)cc1
inactive: [1] 62.5 µM | [2] 7.26 µM | [3] 19.7 µM | [4] 61.8 µM | [5] 62.4 µM | [6] > 100 µM | [7] 27.2 µM | [8] > 100 µM | [9] 41.1 µM | [11] 65.2 µM | [12] > 100 µM | [13] 24.5 µM | [14] 37.6 µM | [20] 35.2 µM | [15] 86.7 µM | [16] 29.6 µM | [17] 37.8 µM | [18] 30.1 µM | [19] 73.3 µM

COc1ccc(/N=N/c2ccc3oc(=O)c(C(=O)Nc4ccccc4C)cc3c2)cc1
inactive: [1] > 10 µM | [2] > 10 µM | [4] > 10 µM | [5] > 10 µM | [6] > 10 µM | [7] > 10 µM | [8] > 10 µM | [9] > 10 µM | [10] > 10 µM | [11] > 10 µM | [12] > 10 µM | [13] > 10 µM | [14] > 10 µM | [20] > 10 µM | [16] > 10 µM | [17] > 10 µM | [18] > 10 µM | [19] > 10 µM
